The source of these data is patent publication US5962501A, “Enantiomer of carbazole derivative as 5-HT1-like agonists” (SmithKline Beecham, p.l.c., priority 1992, dated 1999).

A value given as a limit tells only on which side of the number the result lay.

For this test, the target named is T1, 5-HT1 -like receptor (Oryctolagus cuniculus, UniProt P49144).
T1 construct: Arteries were then cut into ring segments (ca 4-5 mm wide) and set up for recording of isometric tension; from tissue; host or cells: rabbit basilar artery rings, endothelium removed
The test can be described thus: 5-HT1-like receptor screen, rabbit isolated basilar artery (cumulative concentration-effect curves, isometric tension). Format: cell-based. Particulars: in presence of ascorbate, indomethacin, cocaine, ketanserin and prazosin. On the procedure: 5-HT1 -like Receptor Screen
In brief, rabbits were killed by overdose with anaesthetic (sodium pentobarbitone). The whole brain was quickly removed and immersed in ice cold modified Kreb's solution and the basilar artery removed with the aid of a dissecting microscope. […] The endothelium was removed by a gentle rubbing of the lumen with a fine metal wire. […] The arteries were then placed under a resting force of 3-4 mN maintained at 37° C. and the solution bubbled with 95% O2 /5% CO2.
After tests for initial reactivity with 90 mM KCl depolarising solution and for lack of acetylcholine-induced relaxation of 5-HT ([…]) precontraction, cumulative concentration-effect curves ([…]) to 5-HT were constructed in the presence of ascorbate […], cocaine […], indomethacin […], ketanserin […] and prazosin […].
Following a 45-60 min wash period, cumulative concentration-effect curves to the test compounds or 5-HT (as a time match control) were constructed in the presence of ascorbate, indomethacin, cocaine, ketanserin and prazosin.

T1 sequence (P49144 whole entry): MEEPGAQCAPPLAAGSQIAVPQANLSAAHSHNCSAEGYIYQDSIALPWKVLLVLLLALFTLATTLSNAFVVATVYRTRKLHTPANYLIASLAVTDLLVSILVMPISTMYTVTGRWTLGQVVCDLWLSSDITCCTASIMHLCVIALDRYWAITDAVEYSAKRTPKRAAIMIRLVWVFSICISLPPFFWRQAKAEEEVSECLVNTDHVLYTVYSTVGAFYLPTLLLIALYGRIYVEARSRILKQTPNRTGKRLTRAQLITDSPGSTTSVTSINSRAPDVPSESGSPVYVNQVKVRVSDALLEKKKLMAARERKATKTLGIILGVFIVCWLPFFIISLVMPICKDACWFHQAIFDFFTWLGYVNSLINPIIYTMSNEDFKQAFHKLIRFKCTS

In the case of `CN[C@H]1CCc2[nH]c3ccc(C(N)=O)cc3c2C1` [Compound B, S-(-)-6-carboxamido-3-N-methylamino-1,2,3,4-tetrahydrocarbazole], the EC50 is greater than 2000 nM.

What is called EC50 is the concentration that produces a half-maximal response.
